Structures can show the parent of a compound that is named as a salt. Where two headings read alike, the source gives them in different places.
Columns and labels:
[1] = pharmacokinetic investigation of intravenous administration in mice; format: in vivo; settings: mouse; male mice, intravenous injection, plasma
Method: Male mice were injected intravenously with the compound of the present disclosure, and the concentration of the unchanged compound in plasma and the concentration of the metabolite of dezocine hydrochloride were measured after the administration.

[2] = tested on: pain induced by heat radiation in mice; assay: pain induced by heat radiation in mice (light and heat-induced pain); format: in vivo; settings: for ED50: Mus musculus
Description: (§1) A mode of pain induced by heat radiation in mice and a mode of pain induced by hot plate in mice were used to evaluate the analgesic intensity of the test compounds.

κ opioid receptor = κ opioid receptor (Homo sapiens, UniProt P41145); assay: radioisotope ligand competitive binding assay, κ opioid receptor (KOR); settings: [3H]Diprenorphine 0.3 nM, cell membrane of stably transfected cells; read-out: κ IC50
Description: (§2) Through the radioisotope ligand competitive binding assay, IC50 of the compound was used as an indicator to evaluate the affinity of the compound to κ and δ opioid receptors.
(§3) (1) Reagents • The cell membrane was extracted from stably transfected cells constructed by WuXi AppTec, Shanghai. • 3H-diprenophrine (PerkinElmer, Cat: NET1121250UC, Lot: 2143599) • 3H-DAMGO (PerkinElmer, Cat: NET902250UC, Lot: 2139100) • 3H-DADLE (PerkinElmer, Cat: NET648250UC, Lot: 2060549) • Tris base (Sigma, Cat: T6066-1KG), prepare 1M stock and adjust pH to 7.4. • 0.5M EDTA (Invitrogen, Cat: 15575-038) • 1M MgCl2 (Sigma, Cat: M1028-100 ml) • PEI (Poly ethyleneimine) (Sigma, Cat: P3143) • Microscint 20 cocktail (PerkinElmer, Cat: 6013329) • Naltrindole (Sigma, Cat; N115) • (±)trans-U-50488 (Sigma, Cat: D8040) • DAMGO (Sigma, Cat: E7384)
(§4) (1) 1 μL of the test compounds, negative control (i.e., DMSO) and positive control (i.e., non-specific binding well compound), after being prepared, were respectively transferred to a 96-well plate;
(§5) (2) 99 μL of the prepared opioid receptor membrane protein was added to each well of the 96-well plate containing 1 μL of the compound;
(§6) (3) 100 μL of 2× corresponding radioisotope ligand was added to each well;
(§7) (4) The plate was placed on a shake and incubated at room temperature for 1 hour;
(§8) (5) Each well of the GF/C plate was soaked with 50 μL of 0.3% PEI for at least half an hour in advance;
(§9) (6) After the incubation was finished, the GF/C plate was washed with plate washing buffer once by using Harvest. Then, the cell membranes in the 96-well plate were collected onto the GF/C plate using Harvest, and the GF/C plate was washed four times with the plate washing buffer, each time about 250 μL;
(§10) (7) The GF/C plate was placed in an oven at 50° C. for 1 hour;
(§11) (8) The bottom of the GF/C plate was sealed with a plate sealing film, 50 μL of Microscint-20 scintillation fluid was added to each well, and then the plate was sealed with a transparent sealing film for microplate;
(§12) (9) The radioactive signal value CPM was read using MicroBeta2;
(§13) (10) The data was analyzed with Prism 5. The percentage inhibition rate was calculated with the calculation formula: % Inh=(1-Background subtracted Assay value/Background subtracted HC value)*100.

μ opioid receptor = μ opioid receptor (Homo sapiens, UniProt P35372); assay: radioisotope ligand competitive binding assay, μ opioid receptor (MOR); settings: [3H]DAMGO 0.5 nM, cell membrane of stably transfected cells; read-out: μ IC50
[3] = tested on: pain induced by hot plate in mice; assay: pain induced by hot plate in mice; format: in vivo; settings: Mus musculus; male mice
Description: as §1

δ opioid receptor = δ opioid receptor (Homo sapiens, UniProt P41143); assay: radioisotope ligand competitive binding assay, δ opioid receptor (DOR); settings: [3H]-DADLE 0.5 nM, cell membrane of stably transfected cells; read-out: δ IC50
Description: as §2, §3, §4, §5, §6, §7, §8, §9, §10, §11, §12, §13

[4] = female mice, read-out: Light and heat-induced pain ED50 Female
[5] = male mice, read-out: Light and heat-induced pain ED50 Male

Structure (SMILES) | half-life [1] | ED50 [2, 4] | ED50 [2, 5] | Light and heat-induced pain ED95 Female ([2]; female mice) | analgesic effect (comparison in words) ([2]; four mouse models of pain (heat radiation and hot plate), versus dezocine) | Light and heat-induced pain ED95 Male ([2]; male mice) | IC50 (κ opioid receptor) | IC50 (μ opioid receptor) | ED50 [3] | IC50 (δ opioid receptor)
CCCCCN[C@H]1[C@H]2CCCCC[C@]1(C)c1cc(O)ccc1C2 [Hydrochloride of compound 22] | 1.24 h | 0.18 mg/kg | 0.13 mg/kg | 0.26 mg/kg | stronger than dezocine | 0.26 mg/kg | 10 to 100 nM | < 10 nM | 0.3 mg/kg | 10 to 100 nM
CCCCN[C@H]1[C@H]2CCCCC[C@]1(C)c1cc(O)ccc1C2 [Hydrochloride of compound 21] | 1.27 h | 0.068 mg/kg | 0.12 mg/kg | 0.083 mg/kg | – | 0.18 mg/kg | 10 to 100 nM | < 10 nM | 0.15 mg/kg | 10 to 100 nM
